Test results taken from patent publication US6627648B1, “Pharmaceutical compositions and methods for use” (Targacept, Inc., priority 1999, dated 2003).

What was measured:
[1] = tested on: ganglia-type nicotinic acetylcholine receptors; experiment: Determination of interaction with ganglion receptors; assay type: cell-based; details: maximal activation as percentage of maximal activation induced by (S)-(-)-nicotine
Method: (§1) The determination of the interaction of the compounds with ganglionic receptors was carried out in accordance with the techniques described in U.S. Pat. No. 5,597,919 to Dull et al. The maximal activation for individual compounds (Emax) was determined as a percentage of the maximal activation induced by (S)-(−)-nicotine. Reported Emax values represent the amount released relative to (S)-(−)-nicotine on a percentage basis. […] Such preferable compounds have the capability to activate human CNS receptors without activating ganglia-type nicotinic acetylcholine receptors. Thus, there is provided a therapeutic window for utilization in the treatment of CNS disorders. […] The compounds begin to cause effects at ganglia only when employed in amounts of many times those required to activate dopamine release.

[2] = target: T1, muscle-type nicotinic acetylcholine receptors (Homo sapiens, UniProt P02708+P07510+Q07001); experiment: Determination of interaction with muscle receptors; assay type: cell-based; details: maximal activation as percentage of maximal activation induced by (S)-(-)-nicotine; for Emax: read-out: effect at muscle sites (Emax)
T1 construct: endogenous in cells; host or cells: TE671/RD (own knowledge of the cited US 5,597,919)
Method: as §1, with “muscle” for “ganglionic”, “muscle-type” for “ganglia-type”, “cause muscle” for “cause”, “effects” for “effects at ganglia”

CNS nicotinic receptors = CNS nicotinic receptors (Rattus norvegicus, UniProt P09483+P12390); experiment: Determination of binding to relevant receptor sites; details: inhibition constants calculated from IC50 values by the method of Cheng et al.
Method: Binding of the compounds to relevant receptor sites was determined in accordance with the techniques described in U.S. Pat. No. 5,597,919 to Dull et al. Inhibition constants (Ki values), reported in nM, were calculated from the IC50 values using the method of Cheng et al., Biochem, Pharmacol. 22:3099 (1973).

T1 sequence (P02708 21-457): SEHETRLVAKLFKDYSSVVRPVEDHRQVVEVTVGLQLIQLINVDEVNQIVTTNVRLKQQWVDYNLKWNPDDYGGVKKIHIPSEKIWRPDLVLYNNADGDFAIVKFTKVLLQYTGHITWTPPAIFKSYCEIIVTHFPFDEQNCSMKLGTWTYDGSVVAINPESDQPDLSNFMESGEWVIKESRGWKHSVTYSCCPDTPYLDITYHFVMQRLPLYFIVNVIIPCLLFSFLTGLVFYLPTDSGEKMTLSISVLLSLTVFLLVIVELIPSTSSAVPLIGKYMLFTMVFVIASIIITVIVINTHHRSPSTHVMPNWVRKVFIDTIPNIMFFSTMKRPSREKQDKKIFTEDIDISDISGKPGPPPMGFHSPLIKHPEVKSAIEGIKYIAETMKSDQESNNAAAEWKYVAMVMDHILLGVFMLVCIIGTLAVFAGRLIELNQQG
T1 sequence (P11230 24-501 partner): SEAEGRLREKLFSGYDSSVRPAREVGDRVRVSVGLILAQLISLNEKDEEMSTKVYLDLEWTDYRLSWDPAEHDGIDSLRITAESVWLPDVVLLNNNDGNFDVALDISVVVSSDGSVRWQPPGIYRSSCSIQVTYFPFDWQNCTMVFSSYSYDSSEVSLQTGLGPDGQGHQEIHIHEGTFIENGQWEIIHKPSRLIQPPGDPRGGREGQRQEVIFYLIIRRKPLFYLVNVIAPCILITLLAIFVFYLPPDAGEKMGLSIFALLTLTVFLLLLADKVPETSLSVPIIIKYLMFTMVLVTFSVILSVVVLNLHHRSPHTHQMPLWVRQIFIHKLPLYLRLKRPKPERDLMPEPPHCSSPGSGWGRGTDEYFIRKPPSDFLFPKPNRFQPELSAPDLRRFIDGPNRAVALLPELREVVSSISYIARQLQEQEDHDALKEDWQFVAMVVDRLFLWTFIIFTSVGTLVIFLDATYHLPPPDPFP
T1 sequence (Q07001 22-517): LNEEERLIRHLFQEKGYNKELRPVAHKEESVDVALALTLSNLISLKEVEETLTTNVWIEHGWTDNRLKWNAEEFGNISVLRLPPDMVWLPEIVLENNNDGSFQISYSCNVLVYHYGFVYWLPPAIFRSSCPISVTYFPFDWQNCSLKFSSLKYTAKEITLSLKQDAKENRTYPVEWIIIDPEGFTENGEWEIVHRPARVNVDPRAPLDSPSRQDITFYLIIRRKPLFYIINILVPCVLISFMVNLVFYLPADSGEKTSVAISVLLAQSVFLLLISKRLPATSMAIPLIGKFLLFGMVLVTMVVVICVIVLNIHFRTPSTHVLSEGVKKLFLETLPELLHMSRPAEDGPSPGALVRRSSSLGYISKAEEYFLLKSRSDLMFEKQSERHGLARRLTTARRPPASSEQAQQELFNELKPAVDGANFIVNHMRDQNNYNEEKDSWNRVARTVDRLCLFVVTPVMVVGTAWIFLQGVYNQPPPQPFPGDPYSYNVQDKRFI
T1 sequence (P07510 23-517): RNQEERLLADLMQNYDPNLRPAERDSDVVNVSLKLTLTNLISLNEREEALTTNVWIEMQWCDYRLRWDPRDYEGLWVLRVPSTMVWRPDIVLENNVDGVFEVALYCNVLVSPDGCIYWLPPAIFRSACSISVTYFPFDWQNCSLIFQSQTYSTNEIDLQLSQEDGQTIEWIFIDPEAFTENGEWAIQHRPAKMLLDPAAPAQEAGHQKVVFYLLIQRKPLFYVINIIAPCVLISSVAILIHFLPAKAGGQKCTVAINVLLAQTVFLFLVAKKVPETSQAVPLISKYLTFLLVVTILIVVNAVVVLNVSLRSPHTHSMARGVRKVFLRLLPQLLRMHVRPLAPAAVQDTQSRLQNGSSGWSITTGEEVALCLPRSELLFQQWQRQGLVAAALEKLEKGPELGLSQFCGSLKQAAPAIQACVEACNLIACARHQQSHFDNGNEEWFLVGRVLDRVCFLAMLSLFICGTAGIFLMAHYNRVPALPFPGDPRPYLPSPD
CNS nicotinic receptors, sequence (P09483 31-630): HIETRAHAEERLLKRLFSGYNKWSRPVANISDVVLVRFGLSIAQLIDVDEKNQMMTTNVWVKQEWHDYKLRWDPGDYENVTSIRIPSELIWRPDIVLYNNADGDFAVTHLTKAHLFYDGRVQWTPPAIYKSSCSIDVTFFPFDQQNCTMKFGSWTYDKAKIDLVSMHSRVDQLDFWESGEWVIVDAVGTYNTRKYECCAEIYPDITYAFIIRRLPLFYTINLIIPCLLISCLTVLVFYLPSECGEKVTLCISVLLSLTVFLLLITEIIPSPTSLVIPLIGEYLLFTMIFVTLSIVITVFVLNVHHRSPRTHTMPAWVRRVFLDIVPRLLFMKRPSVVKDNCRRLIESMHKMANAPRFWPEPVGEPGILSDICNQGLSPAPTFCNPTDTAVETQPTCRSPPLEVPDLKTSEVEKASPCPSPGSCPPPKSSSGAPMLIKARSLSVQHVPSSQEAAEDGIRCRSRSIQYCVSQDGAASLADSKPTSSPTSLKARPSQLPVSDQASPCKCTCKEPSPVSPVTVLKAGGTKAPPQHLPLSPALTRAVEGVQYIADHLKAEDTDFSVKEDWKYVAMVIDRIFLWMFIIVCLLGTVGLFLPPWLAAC
CNS nicotinic receptors, sequence (P12390 25-500): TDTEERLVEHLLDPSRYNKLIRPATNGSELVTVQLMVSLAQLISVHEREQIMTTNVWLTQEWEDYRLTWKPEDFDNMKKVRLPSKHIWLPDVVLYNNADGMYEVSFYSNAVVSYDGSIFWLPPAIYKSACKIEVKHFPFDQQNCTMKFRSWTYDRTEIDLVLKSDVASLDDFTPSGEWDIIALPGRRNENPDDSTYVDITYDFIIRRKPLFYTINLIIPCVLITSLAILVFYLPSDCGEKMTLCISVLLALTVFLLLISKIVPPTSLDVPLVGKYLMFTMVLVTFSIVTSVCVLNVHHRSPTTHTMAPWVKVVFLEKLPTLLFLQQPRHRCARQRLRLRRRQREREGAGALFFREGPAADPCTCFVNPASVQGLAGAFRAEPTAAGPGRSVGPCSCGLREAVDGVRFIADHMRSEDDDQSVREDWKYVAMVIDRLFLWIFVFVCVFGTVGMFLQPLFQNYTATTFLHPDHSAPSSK

Compound | effect at ganglia sites (Emax) [1] [%] | effect at muscle sites (Emax) [2] [%] | Emax [2] [%] | Ki (CNS nicotinic receptors) [µM]
Methyl(3-(5-isopropoxy-3-pyridyloxy)propyl)amine Monogalactarate [Example 18] | 0 | 22 |  | 
Cl.Cl.c1cncc(OC2CCNCC2)c1 [Example 35, 3-(4-Piperidinyloxy)pyridine dihydrochloride] | 9 |  | 16 | 
CNCCCSc1cncc(Br)c1 [Example 6, 3-(5-Bromo-3-pyridylthio))propyl)methylamine Hemigalactarate] |  |  |  | 40
Ethyl(3-(3-pyridyloxy)propyl)amine Hemigalactarate [Example 22] | 13 | 13 |  | 
Methyl(3-(5-methoxy-3-pyridyloxy)propyl)amine Hemigalactarate [Example 17] | 5 | 10 |  | 
3-(5-Chloro-3-pyridyloxy)propylamine Hemigalactarate [Example 15] | 4 | 0 |  | 
Dimethyl(3-(3-pyridyloxy)propyl)amine Hemigalactarate [Example 11] | 5 | 8 |  | 
CN(C)CCOc1cccnc1 [Example 9, Dimethyl(2-(3-pyridyloxy)ethylamine Hemigalactarate] | 0 |  | 0 | 
(3-(3-Aminophenoxy)propyl)methylamine Hemigalactarate [Example 30] | 5 | 11 |  | 
Methyl(3-(3-nitrophenoxy)propyl)amine Hemigalactarate [Example 28] | 9 | 10 |  | 
Methyl(1-methyl-3-(3-pyridyloxy)propyl)amine Hemigalactarate [Example 26] | 20 | 16 |  | 
Methyl(3-(6-methyl(3-pyridyloxy))propyl)amine Hemigalactarate [Example 20] |  | 0 |  | 
(3-(5-Chloro(3-pyridyloxy))propyl)methylamine Hemigalactarate [Example 16] | 7 | 16 |  | 
Methyl(2-(3-pyridyloxy)ethyl)amine Hemigalactarate [Example 8] | 0 | 0 |  | 
4-(3-Pyridyloxy)butylamine Hemigalactarate [Example 12] | 11 | 0 |  | 
Methyl(3-(2-methyl(3-pyridyloxy))propyl)amine Hemigalactarate [Example 21] | 15 | 0 |  | 
Methyl(3-(5-(phenylmethoxy)(3-pyridyloxy))propyl)amine Hemigalactarate [Example 19] | 3 | 1 |  | 
Cyclopropyl(3-(3-pyridyloxy)propyl)amine Hemigalactarate [Example 25] | 10 | 9 |  | 
3-(3-Pyridyloxy)propylamine Hemigalactarate [Example 10] | 0 | 0 |  | 
